Results from patent US20150274639A1, “METHODS OF USE FOR COMPOSITIONS COMPRISING A BIOCIDAL POLYAMINE” (Curza Global, LLC, priority 2013, published 2015).
Values after ≈ are worked out from the molar mass of the structure shown. Values joined by “and” are separate entries in the source; they are usually repeats but may differ in a detail not shown here. Identical values can stand only once. Like-named read-outs stand apart in the source and are kept apart here.

Tests used:
[1] = test system: A. baumannii biofilm; assay: MBEC, MBEC Inoculation Tray by Innovotech (to 10^2 CFU/peg in 24 hours); format: cell-based, Acinetobacter baumannii; conditions: Table 4
Excerpt: To determine the MBEC of each polyamine compound, the MBEC Inoculation Tray by Innovotech, formerly known as the Calgary biofilm device, was used. Within this device, biofilms grow on the surface of polystyrene pegs, 96 of which are attached to a lid. These pegs are inserted into a flat bottom 96-well plate. In this instance, the MBEC of a molecule was defined as the concentration of compound (in μg/mL) required to reduce 10^5 or 10^6 CFU/peg (biofilm levels varied by isolate) to 10^2 CFU/peg in a 24-hour period.
Following the manufacturer's guidelines, biofilms were grown on the surface of each peg by first making a 0.5 McFarland of each isolate. The 0.5 McFarland was diluted 1:100 in CAMHB. Into each well of a flat bottom 96-well plate, 150 μL of broth were pipetted. The plate was shaken at 100 rpm for 24 hours (P. aeruginosa and A. baumannii) or 48 hours (MRSA). The pegs were then placed into a separate flat bottom 96-well plate for 10 seconds with 200 μL of phosphate buffered saline (PBS) in each well to remove nonadherent cells. The lid was then placed into a 96-well plate that contained varying concentrations of antimicrobial with 200 μL per well. The plate was incubated for 24 hours at 37° C. after which time 100 μL of broth were plated on TSA. TSA plates were incubated 24 hours at 37° C. and the number of CFU counted to calculate the CFU/peg. In this instance, the MBEC was defined as the concentration of antimicrobial required to reduce 10^5 or 10^6 CFU/peg to 10^2 CFU/peg in a 24 hour period.
To determine the MBEC, the MBEC Inoculation Tray by Innovotech, formerly known as the Calgary biofilm device, is used. Within this device, biofilms grow on the surface of polystyrene pegs, 96 of which are attached to a lid. These pegs are inserted into a flat bottom 96-well plate. In this instance, the MBEC of a molecule is defined as the concentration of compound required to reduce approximately 10^6 CFU/peg to approximately 10^2 CFU/peg in a 24-hour period.
Following the manufacturer's guidelines, biofilms are grown on the surface of each peg by first making a 0.5 McFarland of A. baumannii. The 0.5 McFarland is diluted 1:100 in CAMHB broth. Into each well of a flat bottom 96-well plate, 150 μL of broth is pipetted. The plate is shaken at 100 rpm for 24 hours. The pegs are placed into a separate flat bottom 96-well plate for 10 seconds with 200 μL of phosphate buffered saline (PBS) in each well to remove nonadherent cells. The lid is placed into a 96-well plate that contains varying concentrations of antimicrobial with 200 μL of broth per well. The plate is incubated for 24 hours at 37° C. after which time 100 μL of broth is plated on TSA. TSA plates is incubated 24 hours at 37° C. and the number of CFU counted to calculate the CFU/peg.
MBEC data were collected using the MBEC Inoculation Tray by Innovotech. The MBEC was defined in these preliminary results as the concentration of antimicrobial required to reduce 10^5 or 10^6 CFU/peg to 10^2 CFU/peg in a 24-hour period.

[2] = test system: A. baumannii biofilm; assay: EBEC, high number biofilms on PEEK membranes (10^9 to 10^2 CFU/PEEK membrane in 24 hours); format: cell-based, Acinetobacter baumannii; conditions: Table 4
Description: (§1) In addition to determining the MIC and the MBEC of polyamine compounds against planktonic bacteria and low number biofilms, our group wanted to determine the efficacy of polyamine compounds against high number biofilms. To do so, biofilms were grown on the surface of polyetheretherketone (PEEK) membranes using a membrane biofilm reactor. This reactor is similar to the CDC biofilm reactor, but rather than growing biofilms on coupon surfaces, the reactor was modified to hold PEEK membranes. In short, to grow biofilms within this system, 500 mL of brain heart infusion (BHI) broth were inoculated with 1 mL of a 0.5 McFarland. The reactor was placed on a hot plate set at 34° C. and the bacteria were grown under batch conditions for 24 hours. Following this protocol, biofilms typically grow to 10^9 CFU/PEEK membrane. […] A solution of 10% BHI was then flowed through the reactor at a rate of 6.94 mL/min for an additional 24 hours. PEEK membranes were then removed and placed into 2 mL of CAMHB that contained a desired concentration of polyamine compound or antibiotic. The EBEC was defined as the concentration of antimicrobial required to reduce a biofilm from approximately 10^9 CFU/PEEK membrane to approximately 10^2 CFU/PEEK membrane in a 24-hour period.
(§2) In addition to determining the MIC and the MBEC of compounds against planktonic bacteria and low number biofilms, the efficacy of the compounds of the invention against high number biofilms is determined. To do so, biofilms are grown on the surface of PEEK membranes using a membrane biofilm reactor (Williams, D. L., Haymond, B. S. & Bloebaum, R. D. Use of delrin plastic in a modified CDC biofilm reactor. Res J Microbiol 6, 425-429 (2011); Williams, D. L., Woodbury, K. L., Haymond, B. S., Parker, A. E. & Bloebaum, R. D. A modified CDC biofilm reactor to produce mature biofilms on the surface of PEEK membranes for an in vivo animal model application. Curr Microbiol 62, 1657-1663 (2011); Williams, D. L. et al., In Vivo Efficacy of a Silicone—Cationic Steroid Antimicrobial Coating to Prevent Implant-Related Infection. Biomaterials 33, 8641-8656 (2012); Williams, D. L. et al., Experimental model of biofilm implant-related osteomyelitis to test combination biomaterials using biofilms as initial inocula. J Biomed Mat Res A 100, 1888-1900 (2012)). This reactor is similar to the CDC biofilm reactor, but rather than growing biofilms on coupon surfaces, the reactor was modified to hold PEEK membranes. In short, to grow biofilms within this system, 500 mL of brain heart infusion (BHI) broth is inoculated with 1 mL of a 0.5 McFarland. The reactor is placed on a hot plate set at 34° C. and the bacteria grown under batch conditions for 24 hours. A solution of 10% BHI will then be flowed through the reactor at a rate of 6.94 mL/min for an additional 24 hours. Following this protocol, biofilms typically grow to 10^9 CFU/PEEK membrane. PEEK membranes is removed and placed into 2 mL of CAMHB that contain a desired concentration of the test compound. The EBEC is defined as the concentration of antimicrobial required to reduce a biofilm from approximately 10^9 CFU/PEEK membrane to approximately 10^2 CFU/PEEK membrane in a 24-hour period.
EBEC data were collected to determine the efficacy of CZ-52, CZ-58 and traditional antibiotics against high number biofilms containing approximately 10^9 CFU grown on the surface of a polyetheretherketone (PEEK) membrane. […] In contrast, at 250 μg/mL CZ-52 was able to reduce MRSA biofilms by greater than 7 log10 units in a 24-hour period. Although the MIC of CZ-58 was lower against MRSA compared to A. baumannii, CZ-58 had greater activity against biofilms of A. baumannii than against MRSA biofilms in the EBEC assay. […] Although the MIC of CZ-58 was “high” compared to MICs of traditional antibiotics, the efficacy against biofilms was promising.

[3] = test system: biofilm of MRSA; assay: Combination treatment: dispersal of MRSA biofilm; format: cell-based, methicillin-resistant Staphylococcus aureus; conditions: CZ-7 at […] mixed with chlorhexidine gluconate at […]; biofilm of 10^11 cells; within one hour
[4] = test system: MRSA biofilm; assay: MBEC, MBEC Inoculation Tray by Innovotech (to 10^2 CFU/peg in 24 hours); format: cell-based, methicillin-resistant Staphylococcus aureus; conditions: Table 4
[5] = test system: MRSA biofilm; assay: EBEC, high number biofilms on PEEK membranes (10^9 to 10^2 CFU/PEEK membrane in 24 hours); format: cell-based, methicillin-resistant Staphylococcus aureus; conditions: for EBEC, MRSA: Table 4
Description: as §1, §2
EBEC data were collected to determine the efficacy of CZ-52, CZ-58 and traditional antibiotics against high number biofilms containing approximately 10^9 CFU grown on the surface of a polyetheretherketone (PEEK) membrane.

[6] = test system: MRSA; assay: MIC in CAMHB, 96-well plate (10^5 to 10^2 CFU/mL in 24 hours); format: cell-based, methicillin-resistant Staphylococcus aureus; conditions: Table 4
Description: To determine the MIC of polyamine compounds, the protocol described herein was used.
In brief, a 0.5 McFarland of each bacterial isolate was made. A 0.5 McFarland is a measure of turbidity in a liquid sample that contains approximately 1×10̂^8 CFU/mL. The 0.5 McFarland standard was diluted in cation adjusted Mueller Hinton Broth (CAMHB), and […], of broth were added to a well of a 96-well plate. In addition, 50 μL of CAMHB that contained a desired concentration of antimicrobial were also added to the well for a final volume of 100 and a final concentration of approximately 5×10^4 CFU/well (which equated to approximately 5×10^5 CFU/mL). Each well contained a desired amount of polyamine compound in order to experimentally determine the MIC. Each 96-well plate was incubated at 37° C. for 24 hours. The contents of each well were plated on tryptic soy agar (TSA). TSA plates were incubated for 37° C. for 24 hours after which the number of CFU were counted and used to calculate the CFU/mL that remained after exposure to varying concentrations of compound. This procedure was repeated n=8 times for each concentration of antimicrobial. […]

[7] = test system: MRSA biofilm; assay: EBEC on PEEK membranes, 100% eradication (Example 2); format: cell-based, methicillin-resistant Staphylococcus aureus; conditions: PEEK membrane, eradicate all detectable amounts (100%)
Description: The fourth test that was performed was the effective biofilm eradication concentration (EBEC). To determine the EBEC, biofilms of MRSA and P. aeruginosa ATCC 27853 were grown on the surface of PEEK membranes using a previously established protocol. Briefly, 500 mL of brain heart infusion (BHI) broth were inoculated with 10^5 cells/mL of MRSA or P. aeruginosa. BHI broth was placed into a membrane biofilm reactor and placed on a hot plate set at 34° C. for 24 hours with a stir bar rotating at 130 rpm. Following the initial 24-hour growth period, a 10% BHI broth solution was flowed through the reactor at a rate of 6.944 mL/min for another 24 hours. After 48 hours of growth, each PEEK membrane had biofilm growth on it. In this experiment, there were ˜2×10^11 cells of MRSA per PEEK membrane and −2×10^10 cells of P. aeruginosa per PEEK membrane. The EBEC was defined as the concentration of the compound that was required to eradicate all detectable amounts (100%) of bacteria within the biofilms.

[8] = test system: MRSA biofilm; assay: MBEC assay (Calgary Biofilm Device), 100% eradication (Example 2); format: cell-based, methicillin-resistant Staphylococcus aureus; conditions: eradicate 100% of detectable biofilm
Description: In addition to determining the MIC, the minimum biofilm eradication concentration (MBEC) of PBC-51 was also determined. The MBEC was determined using the MBEC assay, formerly known as the Calgary Biofilm Device, developed by Innovotech. In this instance, the MBEC was defined as the amount of antimicrobial required to eradicate 100% of detectable biofilm after being grown in the MBEC device. To grow the biofilms within this device, 150 μL of solution containing a concentration of 10^5 cells/mL were inoculated into each well of a 96-well plate. A lid containing 96 pegs was placed onto the plate and incubated for 24 hours at 37° C. while being shaken at 110 rpm. Biofilms developed on the surface of the polystyrene pegs within the 96-well plate. After 24 hours, each peg contained between 10^5 and 10^6 cells in well-established biofilms. The lid with pegs was transferred to a 96-well plate that contained 200 μL of varying concentrations of the compound and was incubated at 37° C. for an additional 24 hours. The plate was then sonicated, and the biofilms quantified using a 10-fold dilution series to determine the MBEC.

| Structure (SMILES) | MBEC, A. baumannii [1] | EBEC, A. baumannii [2] | dispersal of MRSA biofilm [3] | MBEC, MRSA [4] | EBEC, MRSA [5] | MIC, MRSA [6] [µg/mL] | EBEC [7] | reduction of MRSA biofilms [5] [log10 unit] | reduction of MRSA biofilms ([5]; at 25,000 μg/mL) [log10 unit] | MBEC [8] |
| --- | --- | --- | --- | --- | --- | --- | --- | --- | --- | --- |
| NCCCNCCCNCc1ccccc1 [CZ-7, benzylnorspermidine] | > 500 μg/mL and > 2,259 μM | > 10,000 μg/mL and > 45,180 μM | significant dispersal | > 500 μg/mL and > 2,259 μM | > 5,000 μg/mL and > 22,590 μM | – | – | – | – | – |
| CN[C@H](CC(C)C)C(=O)N[C@H]1C(=O)N[C@@H](CC(N)=O)C(=O)N[C@H]2C(=O)N[C@H]3C(=O)N[C@H](C(=O)N[C@H](C(=O)O)c4cc(O)cc(O)c4-c4cc3ccc4O)[C@H](O)c3ccc(c(Cl)c3)Oc3cc2cc(c3O[C@@H]2O[C@H](CO)[C@@H](O)[C@H](O)[C@H]2O[C@H]2C[C@](C)(N)[C@H](O)[C@H](C)O2)Oc2ccc(cc2Cl)[C@H]1O [Vancomycin, reference compound] | – | – | – | > 500 μg/mL and > 345 μM | > 25,000 μg/mL | 10 (≈ 6.9 µM) | > 20,000 μg/mL and > 13,460 μM | < 1 | < 1 | > 500 μg/mL and > 336.50 μM |
